Measurements reported in patent publication US20250289814A1, “COMPOUNDS AS PARP1 INHIBITIORS” (NINGBO NEWBAY TECHNOLOGY DEVELOPMENT CO., LTD., priority 2022, published 2025).
Read-outs that look alike come from different tables or passages of the source.

Key:
[1] = target: Recombinant full length PARP1 (Homo sapiens (Human), UniProt P09874); assay: FP assay PARP1 (fluorescence anisotropy probe displacement); assay type: binding; conditions: 20 nM PARP1, 8 nM fluorescent probe, 4 h, room temperature
Method: (§1) FP experiments were carried out at room temperature using no-binding black 384-well microplates. Recombinant full length PARP1 and PARP2 proteins produced in house were diluted to 20 nM and 60 nM, respectively, with assay buffer (50 mM Tris pH 8, 0.001% Triton X100, 10 mM MgCl2, and 150 mM NaCl) and incubated for 4 h with an equivalent volume of the 8 nM fluorescent probe diluted with assay buffer. Fluorescence anisotropy of the probe when bound to the proteins was measured in the presence of test compounds or solvent control and the effect on anisotropy determined. Polarization values were read using an Envision plate reader using excitation and emission wavelengths of 590 and 630 nm, respectively. All FP values are expressed as mP units. Inhibition ratio was calculated using readout (mP) following the equation as below: […]
(§2) % inhibition values for different test compound concentrations were calculated and fitted to a four parameter logistic plot in order to determine the IC50 value using XLfit.

[2] = Caco2 (A-B/B-A) permeability; assay type: in vitro ADME; conditions: human; for efflux ratio at 120 min, 5 μM: Caco-2, pH 7.4, PappB-A/PappA-B, read-out: Caco2 efflux ratio (ER); for Papp A→B at 120 min, 5 μM: Caco-2, pH 7.4, apical-to-basolateral, read-out: Caco2 A-B apparent permeability (Papp); for Papp A→B at 120 min, 5 μM / Papp B→A at 120 min, 5 μM: HBSS pH 7.4, 120 min, 37° C.; for Papp B→A at 120 min, 5 μM: Caco-2, pH 7.4, basolateral-to-apical, read-out: Caco2 B-A apparent permeability (Papp)
Method: The apical-to-basolateral (A-B) and basolateral-to-apical (B-A) transport of 5 μM test compounds in HBSS (10 mM HEPES, pH 7.4) was measured across Caco-2 cell monolayers (cells sourced from American Type Culture Collection, Manassas, Virgina). Duplicate incubations were performed at approximately 37° C. for 120 min, with functionality of the test system confirmed using 5 μM propranolol and digoxin as control compounds. Aliquots (50 μL) from both apical and basolateral wells were transferred into two fresh 96-well plates and quenched with acetonitrile solution containing analytical internal standards. Samples were vortexed mixed, centrifuged and a 100 μL aliquot of the resulting supernatant mixed with an equal volume of ultra-pure water prior to analysis by UPLC-MS/MS. The concentrations of test compound and control compounds in the incubation medium of donor and receiver compartments at the beginning and the end of the incubation period were used to calculate the apparent permeability (Papp) from A-B and B-A directions. The efflux ratio (ER) was expressed as PappB-A/PappA-B. The integrity of the cell monolayers after 2 hours incubation was confirmed using the marker reagent Lucifer yellow.

[3] = target: Recombinant full length PARP2 (Homo sapiens (Human), UniProt Q9UGN5); assay: FP assay PARP2 (fluorescence anisotropy probe displacement); assay type: binding; conditions: 60 nM PARP2, 8 nM fluorescent probe, 4 h, room temperature
Method: as §1, §2

DLD1-BRCA2−/− cells = assay: Cell proliferation assay in DLD1-BRCA2−/− cell lines (CellTiter-Glo, 7 days); assay type: cell-based
Method: BRCA2 (−/−) cells cultured in RPMI 1640+10% FBS were harvested and diluted to a density of 1×10^4 cells/mL and 2×10^4 cells/mL, respectively. Cells (40 μL/well) were seeded into 384-well cell culture plates. Plates were covered and incubated at 37° C., 5% CO2 overnight prior to the addition of test compounds or vehicle. The plates were then incubated at 37° C., 5% CO2 for 7 days. On day 8, the plates were removed from incubator and equilibrated at room temperature for 15 minutes. CellTiter-Glo (40 μL, at 1:1 to culture medium) is added into each well and the plates were placed at room temperature for 30 min. Luminescence was measured using an Envision plate reader. The resultant data were analysed as follows; where LC is culture medium without cells:
% inhibition values for different test compound concentrations were calculated and fitted to a four parameter logistic plot in order to determine the IC50 value using XLfit

Sequence of Recombinant full length PARP1 (P09874 whole entry): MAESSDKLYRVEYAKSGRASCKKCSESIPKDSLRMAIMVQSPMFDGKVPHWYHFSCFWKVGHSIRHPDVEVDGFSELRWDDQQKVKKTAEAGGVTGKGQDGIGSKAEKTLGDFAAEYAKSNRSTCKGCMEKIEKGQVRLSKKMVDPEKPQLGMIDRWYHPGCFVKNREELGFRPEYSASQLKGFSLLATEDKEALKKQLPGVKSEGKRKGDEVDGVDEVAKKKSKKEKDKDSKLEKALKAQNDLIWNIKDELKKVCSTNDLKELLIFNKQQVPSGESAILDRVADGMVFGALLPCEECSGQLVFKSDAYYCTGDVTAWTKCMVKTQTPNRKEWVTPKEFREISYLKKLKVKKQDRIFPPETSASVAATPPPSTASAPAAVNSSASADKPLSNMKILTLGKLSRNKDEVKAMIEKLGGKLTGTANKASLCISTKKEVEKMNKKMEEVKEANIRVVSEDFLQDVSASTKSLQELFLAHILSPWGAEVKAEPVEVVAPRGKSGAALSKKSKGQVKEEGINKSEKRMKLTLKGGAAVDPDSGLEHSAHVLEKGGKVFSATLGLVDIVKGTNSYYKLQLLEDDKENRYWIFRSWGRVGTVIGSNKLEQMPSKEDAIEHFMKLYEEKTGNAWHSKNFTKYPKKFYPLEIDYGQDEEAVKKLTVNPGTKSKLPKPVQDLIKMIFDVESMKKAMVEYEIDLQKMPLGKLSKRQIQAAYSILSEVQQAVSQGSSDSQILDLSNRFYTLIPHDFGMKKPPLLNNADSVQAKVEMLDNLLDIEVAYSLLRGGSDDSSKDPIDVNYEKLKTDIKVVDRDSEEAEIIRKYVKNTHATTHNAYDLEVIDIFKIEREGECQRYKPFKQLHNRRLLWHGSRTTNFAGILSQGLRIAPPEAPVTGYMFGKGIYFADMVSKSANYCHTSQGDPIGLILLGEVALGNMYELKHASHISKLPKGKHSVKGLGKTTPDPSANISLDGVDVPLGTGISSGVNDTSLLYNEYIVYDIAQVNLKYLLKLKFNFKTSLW
Sequence of Recombinant full length PARP2 (Q9UGN5 whole entry): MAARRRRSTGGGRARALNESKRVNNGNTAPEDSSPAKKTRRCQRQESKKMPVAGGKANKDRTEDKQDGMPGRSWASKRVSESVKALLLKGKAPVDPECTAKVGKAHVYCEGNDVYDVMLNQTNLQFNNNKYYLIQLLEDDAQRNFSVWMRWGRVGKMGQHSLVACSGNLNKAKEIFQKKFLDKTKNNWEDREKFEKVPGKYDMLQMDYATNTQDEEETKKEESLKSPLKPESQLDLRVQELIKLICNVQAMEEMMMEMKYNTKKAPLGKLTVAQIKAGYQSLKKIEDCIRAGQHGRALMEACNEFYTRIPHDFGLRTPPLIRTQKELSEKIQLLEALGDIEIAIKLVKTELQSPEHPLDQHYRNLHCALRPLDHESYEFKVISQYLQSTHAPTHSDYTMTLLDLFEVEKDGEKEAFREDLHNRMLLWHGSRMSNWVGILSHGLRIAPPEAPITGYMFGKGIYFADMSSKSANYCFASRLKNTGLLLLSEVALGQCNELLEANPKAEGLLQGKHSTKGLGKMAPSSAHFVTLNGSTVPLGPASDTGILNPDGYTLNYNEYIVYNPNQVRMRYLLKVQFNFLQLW

| SMILES | IC50 [1] | efflux ratio at 120 min, 5 μM [2] | Papp A→B at 120 min, 5 μM [2] | Papp B→A at 120 min, 5 μM [2] | IC50 [3] | IC50 (DLD1-BRCA2−/− cells; Homo sapiens, DLD-1, 168 h) | IC50 (DLD1-BRCA2−/− cells) |
| --- | --- | --- | --- | --- | --- | --- | --- |
| CCc1nc2ccc([C@H](C)N3CC(Oc4ccc(C(=O)NC)nc4)C3)cc2[nH]c1=O (single isomer, unassigned) [Compound 52, (enantiomer 1 or 2)-5-((1-(1-(2-ethyl-3-oxo-3,4-dihydroquinoxalin-6-yl)ethyl)azetidin-3-yl)oxy)-N-methylpicolinamide] | 0.0352 µM | 2.09 | 149 nm/s | 312 nm/s | > 10 µM | 0.0189 µM |  |
| CCc1cc2ncc([C@@H](C)N3CC(Oc4ccc(C(=O)NC)nc4F)C3)cc2[nH]c1=O (single isomer, unassigned; enantiomer 1) [Compound 45, (enantiomer 1)-5-((1-(1-(7-ethyl-6-oxo-5,6-dihydro-1,5-naphthyridin-3-yl)ethyl)azetidin-3-yl)oxy)-6-fluoro-N-methylpicolinamide] | 0.0064 µM | 10.5 | 41.8 nm/s | 439 nm/s | 0.365 µM |  | 0.0693 µM |
| CCc1cc2cnc([C@H](C)N3CC(Oc4ccc(C(=O)NC)nc4F)C3)cc2[nH]c1=O (single isomer, unassigned; enantiomer 1) [Compound 49, (enantiomer 1)-5-((1-(1-(3-ethyl-2-oxo-1,2-dihydro-1,6-naphthyridin-7-yl)ethyl)azetidin-3-yl)oxy)-6-fluoro-N-methylpicolinamide] | 0.0145 µM | 8.64 | 34.6 nm/s | 299 nm/s | > 10 µM | 0.0057 µM |  |
| CCc1cc2ncc(CN3CC(Oc4cnc(C(=O)NC)c(F)c4)C3)cc2[nH]c1=O [Compound 2, 5-((1-((7-ethyl-6-oxo-5,6-dihydro-1,5-naphthyridin-3-yl)methyl)azetidin-3-yl)oxy)-3-fluoro-N-methylpicolinamide] | 0.0077 µM | 19.2 | 14.7 nm/s | 283 nm/s | > 10 µM | 0.288 µM |  |
| CNC(=O)c1ccc(OC2CN(Cc3cnc4cc(C5CC5)c(=O)[nH]c4c3)C2)cn1 [Compound 6, 5-((1-((7-cyclopropyl-6-oxo-5,6-dihydro-1,5-naphthyridin-3-yl)methyl)azetidin-3-yl)oxy)-N-methylpicolinamide] | 0.007 µM | 9.29 | 33.2 nm/s | 308 nm/s | > 10 µM | 0.0621 µM |  |
| CCc1cc2ncc(CN3C[C@@H](F)[C@@H](Oc4ccc(C(=O)NC)nc4)C3)cc2[nH]c1=O [Compound 8, 5-(((3S, 4R)-1-((7-ethyl-6-oxo-5,6-dihydro-1,5-naphthyridin-3-yl)methyl)-4-fluoropyrrolidin-3-yl)oxy)-N-methylpicolinamide] | 0.0038 µM | 11.8 | 24.5 nm/s | 288 nm/s | > 10 µM | 0.0511 µM |  |
| CCc1cc2ncc(CN3CCC(Nc4ccc(C(=O)NC)nc4)C3)cc2[nH]c1=O (stereo not drawn) [Compound 10, 5-((1-((7-ethyl-6-oxo-5,6-dihydro-1,5-naphthyridin-3-yl)methyl)pyrrolidin-3-yl)amino)-N-methylpicolinamide] | 0.0031 µM | 39.1 | 5.7 nm/s | 224 nm/s | > 10 µM | 0.0115 µM |  |
| CCc1cc2ncc(CN3CC[C@H](Oc4ccc(C(=O)NC)nc4)C3)cc2[nH]c1=O [Compound 58, (S)-5-((1-((7-ethyl-6-oxo-5,6-dihydro-1,5-naphthyridin-3-yl)methyl)pyrrolidin-3-yl)oxy)-N-methylpicolinamide] | 0.0447 µM |  |  |  | > 10 µM | > 1 µM |  |
